Where two headings read alike, the source gives them in different places.
Tests used:
[1] = system: VISA HIP07256 (NRS19); assay: MIC/MBC broth microdilution, NRS19 (VISA HIP07256); assay type: cell-based; details: Staphylococcus aureus
Protocol: (§1) Determination of minimum inhibitory concentration (MIC). The MICs of the lead thiazole compound (compound 1a) and nine derivatives tested against all 18 MRSA strains were determined, in triplicate samples, using the broth microdilution method in accordance with the recommendations contained in the CLSI guidelines.

[2] = system: MRSA NRS384 (USA300); assay: MIC/MBC broth microdilution, NRS384 (USA300); assay type: cell-based; details: Staphylococcus aureus
Protocol: as §1

[3] = system: NRS194; assay: MIC/MBC broth microdilution, NRS194; assay type: cell-based; details: Staphylococcus aureus
Protocol: as §1

[4] = system: VRSA (VRS10); assay: MIC/MBC broth microdilution, VRSA (VRS10); assay type: cell-based, Staphylococcus aureus; details: Staphylococcus aureus; for MBC: read-out: Minimum Bactericidal Concentration; for MIC: read-out: Minimum Inhibitory Concentration
Protocol: as §1

[5] = system: MRSA ATCC 43300; assay: MIC/MBC broth microdilution, MRSA ATCC 43300; assay type: cell-based, Staphylococcus aureus; details: Staphylococcus aureus
Protocol: as §1

[6] = system: VISA LIM 3 (NRS37); assay: MIC/MBC broth microdilution, NRS37 (VISA LIM 3); assay type: cell-based; details: Staphylococcus aureus
Protocol: as §1

[7] = system: MRSA USA400 (NRS123); assay: MIC/MBC broth microdilution, NRS123 (USA400); assay type: cell-based; details: Staphylococcus aureus
Protocol: as §1

[8] = system: NRS119; assay: MIC/MBC broth microdilution, NRS119; assay type: cell-based; details: Staphylococcus aureus
Protocol: as §1

[9] = system: MRSA ATCC 700699 (NRS1, VISA); assay: MIC/MBC broth microdilution, NRS1 (ATCC 700699); assay type: cell-based; details: Staphylococcus aureus
Protocol: as §1

[10] = system: NRS107; assay: MIC/MBC broth microdilution, NRS107; assay type: cell-based; details: Staphylococcus aureus
Protocol: as §1

[11] = system: MRSA USA500 (NRS385); assay: MIC/MBC broth microdilution, NRS385 (USA500); assay type: cell-based; details: Staphylococcus aureus
Protocol: as §1

[12] = system: MRSA (USA300); assay: Time-kill assay; assay type: cell-based, Staphylococcus aureus; details: 3.0×MIC; MRSA (USA300)
Protocol: Time-kill assay. […] Viable CFU/mL was determined by serial dilution and plating on trypticase soy agar (TSA) (Becton, Dickinson and Company, Sparks, Md., USA) plates after 0, 2, 4, 6, 8, 10, and 12 hours of incubation at 37° C. to identify the time required to reduce the bacterial cell count by 3-log10.

[13] = system: MRSA USA200; assay: MIC broth microdilution, MRSA USA200; assay type: cell-based; details: Staphylococcus aureus, read-out: Minimum Inhibitory Concentration
Protocol: as §1

[14] = system: MRSA USA100; assay: MIC broth microdilution, MRSA USA100; assay type: cell-based; details: Staphylococcus aureus, read-out: Minimum Inhibitory Concentration
Protocol: as §1

[15] = read-out: Minimum Bactericidal Concentration
[16] = read-out: Minimum Inhibitory Concentration
[17] = NRS 119 / VISA, read-out: Minimum Inhibitory Concentration

C/C(=N/NC(=N)N)c1sc(-c2ccc(-c3cccc4ccccc34)cc2)nc1C [Compound M14]
16 µM: MBC ([5]; Table 7, MRSA (ATCC 43300), read-out: Minimum Bactericidal Concentration) | MBC ([8]; NRS 119 / VISA, Table 7, VISA (NRS119), read-out: Minimum Bactericidal Concentration)
2 µM: MIC ([9]; Table 7, VISA (NRS1), read-out: Minimum Inhibitory Concentration)
8 µM: MBC ([4]; Table 7, VRSA (VRS10)) | MIC ([4]; Table 7, VRSA (VRS10)) | MBC ([5]; Table 6, MRSA ATCC 43300, plating on TSA, 20 hour incubation, read-out: MBC) | MIC ([5]; Table 7, MRSA (ATCC 43300), read-out: Minimum Inhibitory Concentration) | MBC ([11]; Table 8, NRS385, read-out: MBC)
4 µM: MBC ([1]; Table 8, NRS19 (VISA), read-out: MBC) | MIC ([1]; Table 8, NRS19 (VISA), read-out: MIC) | MBC ([2]; Table 8, NRS384, read-out: MBC) | MIC ([2]; Table 8, NRS384, read-out: MIC) | MBC ([3]; Table 8, read-out: MBC) | MIC ([3]; Table 8, read-out: MIC) | MIC ([5]; Table 6, MRSA ATCC 43300, 128 μM down to 1.0 μM, 20 hours, read-out: MIC) | MBC ([5]; Table 8, ATCC 43300, read-out: MBC) | MIC ([5]; Table 8, ATCC 43300, read-out: MIC) | MBC ([6]; Table 8, NRS37 (VISA), read-out: MBC) | MIC ([6]; Table 8, NRS37 (VISA), read-out: MIC) | MBC ([7]; Table 8, NRS123, read-out: MBC) | MIC ([7]; Table 8, NRS123, read-out: MIC) | MIC ([8]; NRS 119 / VISA, Table 7, VISA (NRS119), read-out: Minimum Inhibitory Concentration) | MBC ([8]; Table 8, NRS119, read-out: MBC) | MIC ([8]; Table 8, NRS119, read-out: MIC) | MBC ([9]; Table 7, VISA (NRS1), read-out: Minimum Bactericidal Concentration) | MBC ([9]; Table 8, NRS1 (VISA), read-out: MBC) | MIC ([9]; Table 8, NRS1 (VISA), triplicates, 20 hours, read-out: MIC) | MBC ([10]; Table 8, read-out: MBC) | MIC ([10]; Table 8, read-out: MIC) | MIC ([11]; Table 8, NRS385, read-out: MIC)

C/C(=N\NC(=N)N)c1sc(-c2cccc(F)c2)nc1C [Compound M16, (E)-2-(1-(2-(3-fluorophenyl)-4-methylthiazol-5-yl)ethylidene)hydrazinecarboximidamide]
64 µM: MBC [5, 15] | MBC ([8]; NRS 119 / VISA, read-out: Minimum Bactericidal Concentration) | MIC [8, 17] | MBC [9, 15]
128 µM: MBC [1] | MIC [1] | MBC [2] | MIC [2] | MBC [3] | MIC [3] | MBC ([4]; VRSA) | MBC [5] | MIC [5] | MBC [6] | MIC [6] | MBC [7] | MIC [7] | MBC ([8]; NRS119) | MIC ([8]; NRS119) | MBC [9] | MIC ([9]; 20 h) | MBC [10] | MIC [10] | MBC [11] | MIC [11]
32 µM: MIC ([4]; VRSA) | MIC ([5]; 20 h) | MIC [5, 16] | MIC [9, 16]

CN[C@H](CC(C)C)C(=O)N[C@H]1C(=O)N[C@@H](CC(N)=O)C(=O)N[C@H]2C(=O)N[C@H]3C(=O)N[C@H](C(=O)N[C@H](C(=O)O)c4cc(O)cc(O)c4-c4cc3ccc4O)[C@H](O)c3ccc(c(Cl)c3)Oc3cc2cc(c3O[C@@H]2O[C@H](CO)[C@@H](O)[C@H](O)[C@H]2O[C@H]2C[C@](C)(N)[C@H](O)[C@H](C)O2)Oc2ccc(cc2Cl)[C@H]1O [Vancomycin, reference compound]
< 1 µM: MBC [1] | MIC [1] | MIC [5, 16] | MBC ([8]; NRS119) | MIC ([8]; NRS119) | MIC [8, 17] | MBC [10] | MIC [10]
0.5 µM: MBC [2] | MIC [2] | MBC [3] | MIC [3] | MBC [5] | MIC [5] | MBC [7] | MIC [7] | MBC [11] | MIC [11]
0.4 µg/mL: MIC [13]
> 12 hours: time to reduce the number of CFU by 3-log10 [12]
2 µM: MBC [6] | MBC [9]
1.4 µg/mL: MIC [14] | MIC ([8]; NRS119, read-out: Minimum Inhibitory Concentration)
